The values that follow come from US11351265B2, “Process for formulating an anionic agent” (Dicerna Pharmaceuticals, Inc., priority 2013, dated 2022).

The data set in a line: Solubility of cholesterol in ethanol. It counts as physicochemical. As to conditions: organic solvent or mixture, room temperature, absence of other lipids and/or sterols, read-out: solubility limit in ethanol. An excerpt: Thus, a process is provided for raising the amount of an original lipid, sterol and/or blend of lipid(s) and/or sterol(s) that may be solubilized in a solvent (e.g., an alcoholic solvent, e.g., ethanol) by pre-mixing other lipid(s), sterol(s) and/or blend of lipid(s) and/or sterol(s), as oils, powders and/or in solvent(s), before adding such a pre-mixture to the original solubility-limited lipid, sterol and/or blend of lipid(s), thereby effectively raising the solubility limit of the original lipid in the solvent. […] Without wishing to be bound by theory, it is believed that the newly discovered ability to provide high concentration solutions of lipids/sterols at such elevated concentrations enhances the homogeneity of a lipid-anionic agent particle population, as compared to the concentrations at which such lipids/sterols are routinely used within the particle formulation process.
The above-described process schematically exemplified in FIG. 1, which is also referred to herein as “2141”, was not only distinguished from other tested processes in the order of addition of DsiRNA-lipid complexes and additional lipids in ethanol, but also was distinguished from other processes by the concentration of lipids and sterols that were solubilized in the additional lipids in ethanol solution. […]

In brackets after ≈: the same amount, converted by molar mass.

With `CC(C)CCC[C@@H](C)[C@H]1CC[C@H]2[C@@H]3CC=C4C[C@@H](O)CC[C@]4(C)[C@H]3CC[C@]12C` [cholesterol], the solubility (usually how much of the substance goes into solution per volume) is 10 to 11 mg/mL (≈ 25.9 to 28.4 mM).
